The text below walks through data of patent publication US9663526B2, “Aminopyrimidinyl compounds” (Pfizer Inc., priority 2014, dated 2017).

Read-outs that look alike come from different tables or passages of the source. Some results are limits rather than exact numbers.

Holding throughout (type): biochemical
The target of assay [1] is recombinant human kinase domain of JAK1 (Homo sapiens (Human), UniProt P23458). The experiment in a line: JAK Caliper enzyme assay at 1 mM ATP (JAK1).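 Note: microfluidic mobility-shift readout of synthetic fluorescent peptide phosphorylation, percent product converted from peak height, inhibition relative to DMSO-only wells as uninhibited baseline, room temperature incubation.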
recombinant human kinase domain of JAK1, sequence (P23458 875-1153): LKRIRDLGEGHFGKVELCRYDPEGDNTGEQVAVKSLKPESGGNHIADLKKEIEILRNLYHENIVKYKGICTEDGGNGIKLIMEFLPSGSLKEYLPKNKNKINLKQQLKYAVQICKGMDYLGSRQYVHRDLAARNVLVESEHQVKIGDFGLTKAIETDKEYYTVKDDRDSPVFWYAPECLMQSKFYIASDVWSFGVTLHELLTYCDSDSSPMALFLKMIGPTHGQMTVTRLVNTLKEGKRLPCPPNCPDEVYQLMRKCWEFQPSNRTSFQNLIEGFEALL
The target of assay [2] is recombinant human kinase domain of JAK2 (Homo sapiens (Human), UniProt O60674). Description: JAK Caliper enzyme assay at 1 mM ATP (JAK2).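 Note: microfluidic mobility-shift read-out of fluorescent synthetic peptide phosphorylation, percent product converted from peak heights, room temperature, DMSO-only wells as uninhibited baseline, inhibition curve fit.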
recombinant human kinase domain of JAK2, sequence (O60674 849-1124): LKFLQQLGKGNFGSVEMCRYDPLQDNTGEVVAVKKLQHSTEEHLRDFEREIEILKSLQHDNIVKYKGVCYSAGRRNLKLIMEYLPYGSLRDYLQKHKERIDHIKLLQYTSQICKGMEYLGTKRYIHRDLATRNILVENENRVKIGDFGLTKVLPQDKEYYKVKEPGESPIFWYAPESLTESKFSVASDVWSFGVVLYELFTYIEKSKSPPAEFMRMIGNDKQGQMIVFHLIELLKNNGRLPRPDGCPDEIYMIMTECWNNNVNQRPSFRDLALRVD
The target in assay [3] is recombinant human kinase domain of JAK3 (Homo sapiens (Human), UniProt P52333). The experiment in a line: JAK Caliper enzyme assay at 1 mM ATP (JAK3).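 Note: microfluidic mobility-shift readout of synthetic peptide phosphorylation, percent product converted from peak heights, normalized to DMSO-only wells as uninhibited baseline, room temperature incubation.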
recombinant human kinase domain of JAK3, sequence (P52333 822-1111): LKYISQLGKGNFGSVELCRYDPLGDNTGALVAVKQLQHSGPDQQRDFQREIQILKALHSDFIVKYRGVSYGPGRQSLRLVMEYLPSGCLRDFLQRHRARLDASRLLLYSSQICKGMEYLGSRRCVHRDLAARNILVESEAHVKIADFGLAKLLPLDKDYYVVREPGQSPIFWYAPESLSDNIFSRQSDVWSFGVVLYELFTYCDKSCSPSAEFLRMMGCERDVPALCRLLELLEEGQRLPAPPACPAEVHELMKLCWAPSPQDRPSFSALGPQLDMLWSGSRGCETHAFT
In assay [4] the target is recombinant human kinase domain of TYK2 (Homo sapiens (Human), UniProt P29597). Description: JAK Caliper enzyme assay at 1 mM ATP (TYK2).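 Note: microfluidic mobility-shift readout of synthetic peptide phosphorylation by TYK2, tuned to 20–30% conversion at room temperature, reaction stopped with EDTA, DMSO-only wells as uninhibited baseline.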 The note with it: 1 mM ATP; read-out: IC50 (nM) TYK2.
recombinant human kinase domain of TYK2, sequence (P29597 897-1176): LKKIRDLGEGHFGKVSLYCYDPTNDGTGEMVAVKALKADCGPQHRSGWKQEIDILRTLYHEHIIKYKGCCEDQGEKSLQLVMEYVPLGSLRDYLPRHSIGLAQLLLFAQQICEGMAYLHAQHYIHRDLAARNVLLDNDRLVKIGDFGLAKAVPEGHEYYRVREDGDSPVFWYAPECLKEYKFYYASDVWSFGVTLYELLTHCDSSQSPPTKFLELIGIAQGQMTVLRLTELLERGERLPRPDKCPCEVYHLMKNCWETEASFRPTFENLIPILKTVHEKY
Where [5] appears, read: 1 mM ATP, read-out: IC50 (nM) JAK1.
Setting [6] is: 1 mM ATP, read-out: IC50 (nM) JAK3.

For orientation: IC50 means the concentration needed to halve the response being measured. As to `Cn1cc(Nc2nccc(N3C[C@H]4CC[C@@H](C3)N4C(=O)[C@@H]3C[C@@H]3F)n2)cn1` [Example 43, [(1S,2S)-2-fluorocyclopropyl][(1R,5S)-3-{2-[(1-methyl-1H-pyrazol-4-yl)amino]pyrimidin-4-yl}-3,8-diazabicyclo[3.2.1]oct-8-yl]methanone], the IC50 was 902 nM in assay [1] (setting [5]), 2840 nM in assay [2], more than 10000 nM in assay [3] (setting [6]) and 474 nM in assay [4].

Consider `CNC(=O)c1cc(Nc2nccc(N3C[C@H]4CC[C@@H](C3)N4C(=O)[C@@H]3CC3(F)F)n2)cc(CO)n1` [Example 41, 4-({4-[(1R,5S)-8-{[(1S)-2,2-difluorocyclopropyl]carbonyl}-3,8-diazabicyclo[3.2.1]oct-3-yl]pyrimidin-2-yl}amino)-6-(hydroxymethyl)-N-methylpyridine-2-carboxamide], for which the IC50 in assay [1] (setting [5]) is 201 nM; in assay [2] it was 279 nM; in assay [3] (setting [6]), more than 10000 nM; in assay [4] it was 84 nM.

As for `Cn1cc(Nc2nccc(N3C[C@H]4CC[C@@H](C3)N4S(C)(=O)=O)n2)cn1` [Example 77, N-(1-methyl-1H-pyrazol-4-yl)-4-[(1R,5S)-8-(methylsulfonyl)-3,8-diazabicyclo[3.2.1]oct-3-yl]pyrimidin-2-amine], the IC50 in assay [1] (setting [5]) is 380 nM; in assay [2], 653 nM; in assay [3] (setting [6]), more than 10000 nM; in assay [4], 256 nM.

Turning to `CNC(=O)c1ncc(Nc2ncc(F)c(N3C[C@H]4[C@@H](C)[C@@]4(NC(=O)C4CC4)C3)n2)cc1C` [Example 100, 5-[(4-{(1S,5R,6R)-1-[(cyclopropylcarbonyl)amino]-6-methyl-3-azabicyclo[3.1.0]hex-3-yl}-5-fluoropyrimidin-2-yl)amino]-N,3-dimethylpyridine-2-carboxamide], the IC50 in assay [1] (setting [5]) was 965 nM; in assay [2], 4250 nM; in assay [3] (setting [6]), more than 10000 nM; in assay [4], 97 nM.

Take `CNC(=O)c1cc(Nc2nccc(N3C[C@H]4CC[C@@H](C3)N4C(=O)[C@@H]3CC3(F)F)n2)cc(C)n1` [Example 40, 4-({4-[(1R,5S)-8-{[(1S)-2,2-difluorocyclopropyl]carbonyl}-3,8-diazabicyclo[3.2.1]oct-3-yl]pyrimidin-2-yl}amino)-N,6-dimethylpyridine-2-carboxamide]: the IC50 was 369 nM in assay [1] (setting [5]), 189 nM in assay [2], more than 10000 nM in assay [3] (setting [6]) and 70 nM in assay [4].

Take `Cn1cc(Nc2nccc(N3C[C@H]4CC[C@@H](C3)N4C(N)=O)n2)cn1` [Example 76, (1R,5S)-3-{2-[(1-methyl-1H-pyrazol-4-yl)amino]pyrimidin-4-yl}-3,8-diazabicyclo[3.2.1]octane-8-carboxamide]: the IC50 was 537 nM in assay [1] (setting [5]), 1480 nM in assay [2], more than 10000 nM in assay [3] (setting [6]) and 662 nM in assay [4].

Turning to `C[C@@H]1[C@@H]2CN(c3nc(Nc4ccc([C@@H](C)CO)nc4)ncc3F)C[C@]12NC(=O)C1CC1` (single isomer, unassigned) [Example 103], the concentration for half-maximal inhibition (IC50) in assay [1] (setting [5]) is 1740 nM; in assay [2], 3460 nM; in assay [3] (setting [6]) it was more than 10000 nM; in assay [4] it was 150 nM.

With `C[C@H](CO)c1ccc(Nc2ncc(F)c(N3C[C@H]4[C@@H](C)[C@@]4(NC(=O)C4CC4)C3)n2)cn1` (single isomer, unassigned) [Example 104], the IC50 in assay [1] (setting [5]) was 1150 nM; in assay [2], 3130 nM; in assay [3] (setting [6]) it was more than 10000 nM; in assay [4], 86 nM.

For the molecule `CC(CC#N)N1[C@@H]2CC[C@H]1CN(c1ccnc(Nc3cnn(C)c3)n1)C2` (stereo partly shown) [Example 81], the IC50 was 405 nM in assay [1] (setting [5]), 603 nM in assay [2], more than 10000 nM in assay [3] (setting [6]) and 199 nM in assay [4].

In the case of `CNC(=O)c1ncc(Nc2nccc(N3C[C@H]4CC[C@@H](C3)N4C[C@H]3CC3(F)F)n2)cc1C` [Example 68, 5-({4-[(1R,5S)-8-{[(1R)-2,2-difluorocycloproDyl]methyl}-3,8-diazabicyclo[3.2.1]oct-3-yl]pyrimidin-2-yl}amino)-N,3-dimethylpyridine-2-carboxamide], the IC50 in assay [1] (setting [5]) is 85 nM; in assay [2] it was 188 nM; in assay [3] (setting [6]), more than 10000 nM; in assay [4] it was 22 nM.

`Cn1cc(Nc2nccc(N3C[C@H]4CC[C@@H](C3)N4C(=O)[C@H]3C[C@H]3C#N)n2)cn1` [Example 38, (1R,2S)-2-{[(1R,5S)-3-{2-[(1-methyl-1H-pyrazol-4-yl)amino]pyrimidin-4-yl}-3,8-diazabicyclo[3.2.1]oct-8-yl]carbonyl}cyclopropanecarbonitrile]: the IC50 is 707 nM in assay [1] (setting [5]), 2330 nM in assay [2], more than 10000 nM in assay [3] (setting [6]) and 427 nM in assay [4].

`CCNC(=O)c1ccc(Nc2ncc(F)c(N3C[C@H]4CC[C@@H](C3)N4C(=O)OC(C)(C)C)n2)cc1C` [Example 73, tert-butyl 3-(2-{[4-(ethylcarbamoyl)-3-methylphenyl]amino}-5-fluoropyrimidin-4-yl)-3,8-diazabicyclo[3.2.1]octane-8-carboxylate]: the IC50 in assay [1] (setting [5]) came out at 260 nM; in assay [2], 170 nM; in assay [3] (setting [6]), 1770 nM; in assay [4], 17 nM.

On to `Cn1cc(Nc2nccc(N3C[C@H]4CC[C@@H](C3)N4C(=O)Nc3ccc(C(F)(F)F)cn3)n2)cn1` [Example 48, (1R,5S)-3-{2-[(1-methyl-1H-pyrazol-4-yl)amino]pyrimidin-4-yl}-N-[5-(trifluoromethyl)pyridin-2-yl]-3,8-diazabicyclo[3.2.1]octane-8-carboxamide], for which the IC50 in assay [1] (setting [5]) was 300 nM; in assay [2], 2510 nM; in assay [3] (setting [6]) it was more than 10000 nM; in assay [4] it was 964 nM.

Regarding `O=C(C1CC1)N1[C@@H]2CC[C@H]1CN(c1nc(Nc3ccnnc3)ncc1F)C2` [Example 1, cyclopropyl{(1R,5S)-3-[5-fluoro-2-(pyridazin-4-ylamino)pyrimidin-4-yl]-3,8-diazabicyclo[3.2.1]oct-8-yl}methanone], the IC50 is 2730 nM in assay [1] (setting [5]), more than 10000 nM in assay [2], more than 10000 nM in assay [3] (setting [6]) and 1100 nM in assay [4].

On to `CCNC(=O)c1ccc(Nc2ncc(F)c(N3CC4CC(C3)N4C(=O)C(C)(F)F)n2)cc1C` [Example 111, 4-({4-[6-(2,2-difluoropropanoyl)-3,6-diazabicyclo[3.1.1]hept-3-yl]-5-fluoropyrimidin-2-yl}amino)-N-ethyl-2-methylbenzamide], for which the 50% inhibitory concentration (IC50) came out at 1690 nM in assay [1] (setting [5]), 2210 nM in assay [2], 4870 nM in assay [3] (setting [6]) and 56 nM in assay [4].

`O=C(N[C@@]12C[C@@H]1CN(c1nc(Nc3cnn(CCO)c3)ncc1Cl)C2)C1CC1` [Example 107, N-[(1S,5R)-3-(5-chloro-2-{[1-(2-hydroxyethyl)-1H-pyrazol-4-yl]amino}pyrimidin-4-yl)-3-azabicyclo[3.1.0]hex-1-yl]cyclopropanecarboxamide]: the IC50 is 19 nM in assay [1] (setting [5]), 177 nM in assay [2], 1880 nM in assay [3] (setting [6]) and 21 nM in assay [4].

Take `CNC(=O)c1ncc(Nc2nccc(N3C[C@H]4CC[C@@H](C3)N4[C@H]3C[C@H](C#N)C3)n2)cc1C` (single isomer, unassigned) [Example 62]: the IC50 in assay [1] is 1020 nM; in assay [2] it was 1390 nM; in assay [3], more than 10000 nM; in assay [4], 224 nM.

With `CC(CC#N)N1[C@@H]2CC[C@H]1CN(c1ccnc(Nc3cn[nH]c3)n1)C2` (stereo partly drawn) [Example 82, 3-{(1R,5S)-3-[2-(1H-pyrazol-4-ylamino)pyrimidin-4-yl]-3,8-diazabicyclo[3.2.1]oct-8-yl}butanenitrile], the IC50 was 135 nM in assay [1] (setting [5]), 473 nM in assay [2], more than 10000 nM in assay [3] (setting [6]) and 79 nM in assay [4].

`Cn1cc(Nc2nccc(N3C[C@H]4CC[C@@H](C3)N4c3ncc(C#N)o3)n2)cn1` [Example 78, 2-[(1R,5S)-3-{2-[(1-methyl-1H-pyrazol-4-yl)amino]pyrimidin-4-yl}-3,8-diazabicyclo[3.2.1]oct-8-yl]-1,3-oxazole-5-carbonitrile]: the IC50 is 68 nM in assay [1] (setting [5]), 461 nM in assay [2], more than 10000 nM in assay [3] (setting [6]) and 63 nM in assay [4].

For the molecule `CCCNC(=O)c1cc(Nc2ncc(F)c(N3C[C@H]4CC[C@@H](C3)N4C(=O)C3CC3)n2)n[nH]1` [Example 2, 3-({4-[(1R,5S)-8-(cyclopropylcarbonyl)-3,8-diazabicyclo[3.2.1]oct-3-yl]-5-fluoropyrimidin-2-yl}amino)-N-propyl-1H-pyrazole-5-carboxamide], the IC50 in assay [1] (setting [5]) was 1550 nM; in assay [2] it was 4720 nM; in assay [3] (setting [6]), more than 10000 nM; in assay [4], 432 nM.

On to `C[C@@H]1[C@@H]2CN(c3nc(Nc4cnc(CO)c(Cl)c4)ncc3F)C[C@]12NC(=O)C1CC1` [Example 105, N-[(1S,5R,6R)-3-(2-{[5-chloro-6-(hydroxymethyl)pyridin-3-yl]amino}-5-fluoropyrimidin-4-yl)-6-methyl-3-azabicyclo[3.1.0]hex-1-yl]cyclopropanecarboxamide], for which the IC50 in assay [1] (setting [5]) was 1570 nM; in assay [2], 6100 nM; in assay [3] (setting [6]), more than 10000 nM; in assay [4], 152 nM.

As for `CNC(=O)c1ncc(Nc2ncc(F)c(N3C[C@@H]4[C@H](C)[C@]4(NC(=O)C4CC4)C3)n2)cc1C` [Example 101, 5-[(4-{(1R,5S,6S)-1-[(cyclopropylcarbonyl)amino]-6-methyl-3-azabicyclo[3.1.0]hex-3-yl}-5-fluoropyrimidin-2-yl)amino]-N,3-dimethylpyridine-2-carboxamide], the IC50 in assay [1] (setting [5]) is 1880 nM; in assay [2] it was 2910 nM; in assay [3] (setting [6]), more than 10000 nM; in assay [4], 663 nM.
